Data published in paper PMC11510191, “Exploring Benzo[h]chromene Derivatives as Agents against Protozoal and Mycobacterial Infections” (Pharmaceuticals, 2024).
In brackets after ≈: the same amount, converted by molar mass. Where two headings read alike, the source gives them in different places.

Tests used:
[1] = test system: M. tuberculosis CIPTIR-F296; test: MIC broth microdilution; type: cell-based; conditions: Mycobacterium tuberculosis, CIPTIRF296
[2] = test system: B. cereus (G+); test: MIC broth microdilution; type: cell-based; conditions: Bacillus cereus, 24 h
[3] = test system: S. typhi (G−); test: MIC broth microdilution; type: cell-based; conditions: Salmonella enterica, 24 h
[4] = test system: Leishmania infantum (L. i) promastigotes; test: Leishmanicidal activity on L. infantum promastigotes (resazurin); conditions: for IC50: Leishmania infantum, 48 h, read-out: Leishmanicidal Activity IC50—L. i; for Selectivity Index L929/ L. i: SI = CC50 L929/IC50 parasites
Experimental: (§1) The culture of L. braziliensis (MHOM/CO/88/UA301) and L. infantum (MCAN/ES/92/BCN83) was obtained from the Facultad de Farmacia, Universidad Complutense de Madrid, Spain.
(§2) The maintenance of the strains, the form of cultivation, and the isolation of shape promastigota followed the procedures described by Roldós et al. [8]. The promastigotes were grown at 22 °C in Schneider’s Drosophila medium supplemented with 20% FBS. The assay was performed using a modification of a previous method [47]. Promastigotes (2 × 10^6 parasites/well) were cultured in 96-well plastic plates. Compounds were dissolved in dimethylsulfoxide (DMSO). Different dilutions of the compounds up to a 200 µL final volume were added. After 48 h at 26 °C, 20 µL of 2 mM resazurin solution was added and the oxidation–reduction was quantified at 570 and 600 nm. The solution of resazurin was prepared at 2.5 mM in phosphate-buffered solution (PBS), pH 7.4, and filtered through 0.22 µM prior to use. All tests were carried out in triplicate. Resazurin sodium salt was obtained from Sigma–Aldrich (St. Louis, MO, USA) and stored at 4 °C protected from light. The efficacy of each compound was estimated by calculating the IC50 values.

[5] = test system: M. fortuitum LIID-01; test: MIC broth microdilution; type: cell-based; conditions: Mycolicibacterium fortuitum, LIID01, 72 h
[6] = test system: L. innocua (G+); test: MIC broth microdilution; type: cell-based; conditions: Listeria innocua, 24 h
[7] = test system: Leishmania brazilensis (L. b) promastigotes; test: Leishmanicidal activity on L. braziliensis promastigotes (resazurin); conditions: for IC50: Leishmania, 48 h, read-out: Leishmanicidal Activity IC50—L. b; for Selectivity Index L929/ L. b: SI = CC50 L929/IC50 parasites
Experimental: as §1, §2

[8] = test system: M. luteus (G+); test: MIC broth microdilution; type: cell-based; conditions: Micrococcus luteus, 24 h
[9] = test system: E. coli (G−); test: MIC broth microdilution; type: cell-based; conditions: Escherichia coli, 24 h
[10] = test system: S. aureus (G+); test: MIC broth microdilution; type: cell-based; conditions: Staphylococcus aureus, 24 h
[11] = test system: E. faecalis (G+); test: MIC broth microdilution; type: cell-based; conditions: Enterococcus faecalis, 24 h
[12] = test system: M. intracellulare LIID-01; test: MIC broth microdilution; type: cell-based; conditions: Mycobacterium intracellulare, LIID01
[13] = test system: P. aeruginosa (G−); test: MIC broth microdilution; type: cell-based; conditions: Pseudomonas aeruginosa, 24 h
[14] = test system: M. tuberculosis CIPTIR -D152; test: MIC broth microdilution; type: cell-based; conditions: Mycobacterium tuberculosis
[15] = Cytotoxicity on L929 fibroblasts (resazurin); conditions: mouse
[16] = test system: NCTC929 fibroblast cells (L929); test: Cytotoxicity on L929 fibroblasts (resazurin); conditions: L929 fibroblasts
[17] = test system: M. tuberculosis ATCC H37Rv; test: MIC broth microdilution; type: cell-based; conditions: Mycobacterium tuberculosis
[18] = test system: T. cruzi epimastigotes; test: Trypanocidal activity on T. cruzi epimastigotes (CL-B5 lacZ, CPRG); type: cell-based, Trypanosoma cruzi clone CL-B5; conditions: for Selectivity Index L929/ T. cruzi: SI = CC50 L929/IC50 parasites; for IC50: 72 h
Experimental: For in vitro studies of T. cruzi. the clone CL-B5 was used. Parasites were stably transfected with the Escherichia coli β-galactosidase gene (lacZ), provided by Facultad de Farmacia (Universidad Complutense de Madrid). Epimastigotes were grown at 28 °C in liver infusion tryptose broth (Difco, Detroit, MI, USA) with 10% fetal bovine serum (FBS) (Gibco, Carlsbad, CA, USA), penicillin (Ern S.A., Barcelona, Spain), and streptomycin (Reig Jofré S.A., Barcelona. Spain), as described previously, and harvested during the exponential growth phase. Briefly, the screening assay was performed in 96-well microplates (Sarstedt, Inc., Newton, NC, USA) with cultures that had not reached the stationary phase. Briefly, epimastigotes were seeded at 2 × 10^5 parasites/mL in 200 µL growth media. The plates were then incubated with the respective compounds at 28 °C for 72 h. Afterwards, 50 µL of CPRG solution was added, resulting in a final concentration of 200 µM. The plates were incubated at 37 °C for an additional 4 h and then read at 595 nm. Each concentration was tested in triplicate. […] These values were calculated from the sigmoidal dose–response curve adjustment using the statistical software program Graph-Pad Prims 3.0. Benznidazole was used as a reference drug.

[19] = test system: M. intracellulare LIID-02; test: MIC broth microdilution; type: cell-based; conditions: Mycobacterium intracellulare, LIID02
[20] = test system: M. abscessus LIID-01; test: MIC broth microdilution; type: cell-based; conditions: Mycobacteroides abscessus, LIID01, 72 h
[21] = test system: L. monocytogenes (G+); test: MIC broth microdilution; type: cell-based; conditions: Listeria monocytogenes, 24 h
[22] = test system: M. abscessus LIID-02; test: MIC broth microdilution; type: cell-based; conditions: Mycobacteroides abscessus, LIID02, 72 h
[23] = test system: M. abscessus LIID-03; test: MIC broth microdilution; type: cell-based; conditions: Mycobacteroides abscessus, LIID03, 72 h
[24] = in vitro; conditions: mouse
[25] = Trypanosoma cruzi, epimastigotes, read-out: Trypanocidal Activity IC50 T. cruzi

Compound	MIC [1] [µg/mL]	MIC [2] [µg/mL]	MIC [3] [µg/mL]	IC50 [4] [µM]	MIC [5] [µg/mL]	MIC [6] [µg/mL]	IC50 [7] [µM]	MIC [8] [µg/mL]	MIC [9] [µg/mL]	MIC [10] [µg/mL]	MIC [11] [µg/mL]	MIC [12] [µg/mL]	MIC [13] [µg/mL]	MIC [14] [µg/mL]	CC50 at 24 h [15] [µM]	MIC [19] [µg/mL]	MIC [20] [µg/mL]	MIC [21] [µg/mL]	MIC [22] [µg/mL]	MIC [23] [µg/mL]	also measured
Cc1ccc(S(=O)(=O)n2cc(CCC(=O)Oc3c4c(c5ccccc5c3OC(=O)CCc3cn(S(=O)(=O)c5ccc(C)cc5)nn3)OC(C)(C)C=C4)nn2)cc1 [Compound 2f]	> 200	> 200	> 200	38.2	> 200	> 200	14.5	> 200	> 200	> 200	> 200	50 (≈ 62.7 µM)	> 200	> 200	31.8	> 200	> 200	> 200	> 200	> 200	Selectivity Index L929/ L. i [4]: 1; Selectivity Index L929/ L. b [7]: 2; Cytotoxicity (in words) [16]: most cytotoxic; MIC ([17]; H37RV): > 200 µg/mL; Selectivity Index L929/ T. cruzi [18]: 2; IC50 ([18]; Trypanosoma cruzi, read-out: Trypanocidal Activity IC50 T. cruzi, epimastigotes, 72 h): 21.4 µM; IC50 ([18]; epimastigotes, read-out: Trypanocidal Activity IC50 T. cruzi): 21.1 µM
C[C@@H](O)[C@H]1C(=O)N2C(C(=O)O)=C(SCCN=CN)C[C@H]12 [Imipenem, reference compound]	–	–	–	–	4 (≈ 13.4 µM)	–	–	–	–	–	–	1 (≈ 3.34 µM)	–	–	–	> 64	32 (≈ 107 µM)	–	32 (≈ 107 µM)	8 (≈ 26.7 µM)	–
CNC(C)C1CCC(N)C(OC2C(N)CC(N)C(OC3OCC(C)(O)C(NC)C3O)C2O)O1 (centres unmarked) [Gentamicin, reference compound]	–	0.78 (≈ 1.63 µM)	0.1 (≈ 0.209 µM)	–	–	1.56 (≈ 3.27 µM)	–	0.78 (≈ 1.63 µM)	0.2 (≈ 0.419 µM)	0.1 (≈ 0.209 µM)	0.78 (≈ 1.63 µM)	–	0.78 (≈ 1.63 µM)	–	–	–	–	0.2 (≈ 0.419 µM)	–	–	–
Cc1ccc(S(=O)(=O)n2cc(CCCC(=O)Oc3c4c(c5ccccc5c3OC(=O)CCCc3cn(S(=O)(=O)c5ccc(C)cc5)nn3)OC(C)(C)C=C4)nn2)cc1 [Compound 3f]	> 200	100 (≈ 121 µM)	> 200	46.6	100 (≈ 121 µM)	100 (≈ 121 µM)	17.6	100 (≈ 121 µM)	100 (≈ 121 µM)	100 (≈ 121 µM)	> 200	100 (≈ 121 µM)	100 (≈ 121 µM)	> 200	312	> 200	100 (≈ 121 µM)	100 (≈ 121 µM)	100 (≈ 121 µM)	100 (≈ 121 µM)	Selectivity Index L929/ L. i [4]: 7; Selectivity Index L929/ L. b [7]: 18; Cytotoxicity (in words) [16]: no cytotoxicity; MIC ([17]; H37RV): > 200 µg/mL; Selectivity Index L929/ T. cruzi [18]: 13; IC50 [18, 25]: 24.7 µM
CC1(C)C=Cc2c(OC(=O)CCCc3cn(Cc4ccc([N+](=O)[O-])cc4)nn3)c(OC(=O)CCCc3cn(Cc4ccc([N+](=O)[O-])cc4)nn3)c3ccccc3c2O1 [Compound 3h]	> 200	> 200	100 (≈ 127 µM)	> 256	> 200	> 200	> 256	> 200	> 200	100 (≈ 127 µM)	> 200	> 200	> 200	> 200	> 256	> 200	100 (≈ 127 µM)	> 200	100 (≈ 127 µM)	100 (≈ 127 µM)	MIC ([17]; H37RV): > 200 µg/mL; IC50 [18, 25]: > 256 µM
CC(=O)O[C@@H]1[C@@H](OC(C)=O)[C@H](OC(C)=O)CO[C@H]1n1cc(CCCC(=O)Oc2c3c(c4ccccc4c2OC(=O)CCCc2cn([C@@H]4OC[C@@H](OC(C)=O)[C@H](OC(C)=O)[C@H]4OC(C)=O)nn2)OC(C)(C)C=C3)nn1 [Compound 3e]	> 200	> 200	100 (≈ 96.8 µM)	> 256	> 200	> 200	> 256	> 200	> 200	> 200	> 200	50 (≈ 48.4 µM)	> 200	> 200	> 256	> 200	> 200	> 200	> 200	> 200	MIC ([17]; H37RV): > 200 µg/mL; IC50 [18, 25]: > 256 µM
C#CCCC(=O)Oc1c2c(c3ccccc3c1OC(=O)CCC#C)OC(C)(C)C=C2 [Compound 1a]	> 200	> 200	> 200	24.9	> 200	> 200	10.7	> 200	> 200	100 (≈ 248 µM)	> 200	50 (≈ 124 µM)	> 200	> 200	106	> 200	> 200	> 200	> 200	> 200	Selectivity Index L929/ L. i [4]: 4; Selectivity Index L929/ L. b [7]: 10; MIC ([17]; H37RV): > 200 µg/mL; Selectivity Index L929/ T. cruzi [18]: 6; IC50 [18, 25]: 19.2 µM
CC(=O)NC[C@H]1CN(c2ccc(N3CCOCC3)c(F)c2)C(=O)O1 [Linezolid, reference compound]	–	–	–	–	8 (≈ 23.7 µM)	–	–	–	–	–	–	2 (≈ 5.93 µM)	–	–	–	8 (≈ 23.7 µM)	1 (≈ 2.96 µM)	–	1 (≈ 2.96 µM)	1 (≈ 2.96 µM)	–
CO[C@H]1/C=C/O[C@@]2(C)Oc3c(C)c(O)c4c(O)c(c(/C=N/N5CCN(C)CC5)c(O)c4c3C2=O)NC(=O)/C(C)=C\C=C\[C@H](C)[C@H](O)[C@@H](C)[C@@H](O)[C@@H](C)[C@H](OC(C)=O)[C@@H]1C [Rifampicin, reference compound]	–	–	–	–	–	–	–	–	–	–	–	–	–	–	–	–	–	–	–	–	MIC ([1]; M. tuberculosis CIPTIR-F296, read-out: MIC): 1 µg/mL (≈ 1.22 µM); MIC ([14]; M. tuberculosis CIPTIR -D152, read-out: MIC): 32 µg/mL (≈ 38.9 µM); MIC ([17]; M. tuberculosis ATCC H37Rv, read-out: MIC): 2 µg/mL (≈ 2.43 µM)
CCCCCCCCCCCCCCCCOP(=O)([O-])OCC[N+](C)(C)C [Miltefosine, reference compound]	–	–	–	25.1	–	–	64	–	–	–	–	–	–	–	–	–	–	–	–	–	Selectivity Index L929/ L. i [4]: 109.7; CC50 at 24 h [24]: 2750 µM; Selectivity Index L929/ L. b [7]: 43.0
CC1(C)C=Cc2c(OC(=O)CCCc3cn(Cc4ccc(Br)cc4)nn3)c(OC(=O)CCCc3cn(Cc4ccc(Br)cc4)nn3)c3ccccc3c2O1 [Compound 3i]	–	–	–	> 256	–	–	> 256	–	–	–	–	–	–	–	> 256	–	–	–	–	–	IC50 [18, 25]: > 256 µM
